Source: patent publication US4584376A, “1-heterocyclicthio-1-cyclopropanecarbonitriles as crop protectants” (Monsanto Company, priority 1982, dated 1986)
“And” between values parts separate entries of the source, which are not always exact repeats. Equal values may be shown once.

Columns and labels:
Type in all cases: in vivo
Sorghum = experiment: Greenhouse safening test: % plant inhibition of sorghum by herbicide with and without safener; settings: approx. 21 days; for % Plant Inhibition, Sorghum (herbicide plus safener): H-1 (alachlor) 2.2 kg/ha plus safener 9.0 kg/ha, left-hand figure
Method: (§1) Seed plantings and the sequential application of the herbicide and safening agents are accomplished in the following manner:
(§2) A fumigated silt loam to top soil is placed in a container and compacted to a depth of approximately 1.27 cm. from the top of said container. A predetermined number of seeds of each of the crop species to be tested are placed on top of the soil. A quantity of soil sufficient to substantially fill the container is measured and placed in a second container. A measured quantity of the herbicide dispersed or dissolved in a suitable carrier is applied to the soil in the second container. A measured quantity of the safening agent dispersed or dissolved in a suitable carrier is thereafter sprayed on the soil already treated with the […]. The soil containing the safening agent and/or herbicide is thoroughly mixed. This mixing is sometimes referred to as incorporation of the herbicide and safening agent into the soil. The mixing or incorporation provides a substantially uniform distribution of the safening agent and herbicide throughout the soil. The seeds are covered with the soil containing the safening agent and/or herbicide or with untreated soil, and the pots are leveled. The pots are then placed on a sand bench in a greenhouse and watered from below as needed. When the seeds are treated with safener, the application of the safener to the soil is omitted. The coated seeds are placed on top of the soil in the pot and the balance of the treatment procedure is the same. The plants are observed at the end of approximately 21 days and the results in terms of percent inhibition of growth are recorded.
(§3) For each test series, a pot is also prepared containing no herbicide and no safening agent as a control. For each treatment, the herbicidal activity is observed on pots treated with the same quantity of herbicide alone. The results are observed and recorded as percent inhibition of each plant species tested. The tank mixes of know herbicides, safeners or combinations thereof were prepared by dissolving the appropriate amount of active ingredient in acetone. In Table 2 the results of testing the compounds of the present invention have been set forth. The rates of herbicide application are given in kilograms per hectare. In each treatment the amount of safener employed was 9.0 kilograms per hectare. In the % Plant Inhibition section of Table 2 under the listed crop columns the data are the inhibitions for herbicide plus safener on the left side and for the herbicide alone on the right side. The known herbicides are identified as follows. Throughout the examples, the herbicides are individually identified by reference numbers H-1 and H-2.

Wheat = experiment: Greenhouse safening test: % plant inhibition of wheat by herbicide with and without safener; settings: approx. 21 days; for % Plant Inhibition, Wheat (herbicide plus safener): H-1 (alachlor) 2.2 kg/ha plus safener 9.0 kg/ha, left-hand figure
Method: as §1, §2, §3

Rice = experiment: Greenhouse safening test: % plant inhibition of rice by herbicide with and without safener; settings: approx. 21 days; for % Plant Inhibition, Rice (herbicide alone): right-hand figure; for % Plant Inhibition, Rice (herbicide plus safener): left-hand figure
Method: as §1, §2, §3

[1] = H-1 (alachlor) 2.2 kg/ha alone, right-hand figure
[2] = H-2 (butachlor) 4.5 kg/ha plus safener 9.0 kg/ha

| Compound | % Plant Inhibition, Sorghum (herbicide plus safener) (Sorghum) | % Plant Inhibition, Wheat (herbicide plus safener) (Wheat) | % Plant Inhibition, Rice (herbicide plus safener) (Rice; [2]) | other results |
| --- | --- | --- | --- | --- |
| CCc1cccc(CC)c1N(COC)C(=O)CCl [Compound H-1, 2-chloro-2',6'-diethyl-N-(methoxymethyl) acetanilide, reference compound] | – | – | – | % Plant Inhibition, Sorghum (herbicide alone) (Sorghum; [1]): 90% and 80% and 85%; % Plant Inhibition, Wheat (herbicide alone) (Wheat; [1]): 90% and 75% and 80%; % Plant Inhibition, Rice (herbicide alone) (Rice; H-1 (alachlor) 2.2 kg/ha alone): 90% |
| Cn1ccnc1SC1(C#N)CC1 [Compound 4, 1-[(1-methyl-1H--imidazol-2-yl)thio]-1-cyclopropanecarbonitrile] | 20% | 100% | 95% | – |
| N#CC1(Sc2nc(-c3ccccc3)cs2)CC1 [Compound 2, 1-[(4-phenyl-2-thiazolyl)thio]-1-cyclopropanecarbonitrile] | 45% | – | 90% | % Plant Inhibition, Rice (herbicide plus safener) (Rice; H-1 (alachlor) 2.2 kg/ha plus safener 9.0 kg/ha): 95% |
| CCCCOCN(C(=O)CCl)c1c(CC)cccc1CC [Compound H-2, 2-chloro-2',6'-diethyl-N-(butoxymethyl) acetanilide, reference compound] | – | – | – | % Plant Inhibition, Rice (herbicide alone) (Rice; H-2 (butachlor) 4.5 kg/ha alone): 90% and 75% and 60% |
| Cc1ccnc(SC2(C#N)CC2)n1 [Compound 3, 1-[(4-methyl-2-pyrimidinyl)thio]-1-cyclopropanecarbonitrile] | 95% | 90% | 40% | – |
| Cn1c(SC2(C#N)CC2)nnc1C(F)(F)F [Compound 1, 1([4-methyl-5-(trifluoromethyl)4H.1,2,4-triazol-3 yl]thio)-1-cyclopropanecarbonitrile] | 100% | 75% | 95% | – |
